One series deals with gastric mucosa of rats. As to the kind of experiment: gastric ulcerogenic effect (Meshali's method, ulcer index by Robert's method). More on the design: key to Ulcer index: ulcer index = %incidence/10 + avg no. of ulcers + avg severity (0–4). As to conditions: for % ulceration in the population of test animals: oral 10 mg/kg; for Average No. of ulcer / % Incidence/10 / % Ulcerogenicity relative to indomethacin / Average severity / Ulcer index: oral 10 mg/kg on three days; for % Incidence/10: 5 animals per group; for % Ulcerogenicity relative to indomethacin: indomethacin = 100, 10 mg/kg; for Average severity: score 0 to 4; for Ulcer index: sum of the 3 figures. It counts as in vivo, rat. The protocol: The ulcer index was calculated according to Robert’s method.
Adult male albino rats weighing between 100 and 120 g were used. Animals were divided into groups of five animals each. Rats were fasted 20 h before drug administration. Water was given ad libitum. The control group received the vehicle (1% gum acacia) orally. Other groups received indomethacin or test compounds orally in a dose of 10 mg/kg body weight suspended in 1% gum acacia. Rats were fasted for 2 h, allowed to feed for 2 h, then fasted for another 20 h. Rats were given another two doses on the second and third days. On the fourth day, rats were sacrificed by diethyl ether; the stomach of each rat was removed, opened along the greater curvature, and rinsed with cold 0.9% saline. The stomach was stretched, by pins, on a corkboard and inspected with a 3x magnifying lens for any evidence of mucosal damage. The ulcer index was calculated according to Robert’s method. The number of mucosal damage (red spots) was counted and their severity (ulcerogenic severity) was graded from 0 to 4 according to the following score assignment:
The following figures were calculated: • –– % Incidence/10 = [number of rats showing ulcer of any grade divided by total number of rats in the group × 100]/10. • –– Average number of ulcers: number of ulcers in the group/total number of rats in the group. • –– Average severity: Σ [each ulcer multiplied by its score of severity]/number of ulcers in the group. • Ulcer index = the sum of the 3 figures. • Results are tabulated in Table 2.

Series [1] deals with carrageenan-induced rat paw edema. As to the kind of experiment: carrageenan-induced rat paw edema test. As to conditions: rats, 10 mg/kg intraperitoneally, 4 h after carrageenan; for inhibition in vivo at 10 mg/kg / change in vivo at 10 mg/kg: Rattus norvegicus, ip; for inhibition in vivo at 10 mg/kg: 4 h, read-out: %Inhibition of Paw edema from control group (edema reduction); for change in vivo at 10 mg/kg / Mean increase in edema weight ± SEM: N = 6; for change in vivo at 10 mg/kg: read-out: Mean % increase in edema weight ± SEM; for % Activity relative to indomethacine: indomethacin = 100. More on the design: Mean increase in edema weight ± SEM: unit not given here. Format: in vivo. The protocol: The in vivo anti-inflammatory effects of the newly synthesized pyrazolopyrimidine derivatives were assessed by utilizing the functional model of carrageenan-induced rat paw edema using indomethacin as the reference drug. Mean changes and the percent increase in paw edema weight of animals pretreated with the tested compounds after 4 h from the induction of inflammation were measured, together with the percent inhibition of induced rat paw edema by the tested compounds. The anti-inflammatory activity (relative potency) of the tested compounds relative to that of indomethacin was also calculated (Table 1) (Fig. 2).
The in vivo carrageenan-induced rat paw edema model of inflammation was used to evaluate the anti-inflammatory properties of the newly synthesized compounds according to the previously reported Winter et al. method.
Adult male albino rats weighing 100–120 g (obtained from the animal house of the department of Physiology, Faculty of Medicine, Alexandria University) were used throughout the work. Animals were randomly divided into groups of six rats each. They were kept in an animal house under standard conditions of light and temperature with free access to food and water ad libitum and allowed to be accustomed to their environment for two days before testing.
Indomethacin, used as a reference standard (Khahira for Pharmaceutical and Chemical Industry, Cairo, Egypt), and the test compounds were dissolved in DMSO and were injected intraperitoneally at a dose level of 10 mg/kg body weight. Control animals, on the other hand, were intraperitoneally injected with appropriate volume of DMSO only. After one hour of the above treatment, an inflammatory edema in the right hind paw of all animals was induced by subcutaneous injection of 0.05 ml of freshly prepared solution of 1% carrageenan (λ-Carrageenan Sigma–Aldrich Corp. St. Louis, MO, USA) in sterile normal saline (0.9%), into the subplantar tissue of the paw. An equal volume of saline was injected to the left hind paw and served as internal control for the degree of inflammation in the right hind paw.
Four hours after carrageenan injection, animals were decapitated and both the right and left hind paws were excised at a standard point and weighed. The difference in weight from edema between right and left paws was taken as a measure of the degree of inflammation for each animal. The mean increase in weight of the carrageenan-injected paw over the other paw in each group was measured and the percent increase of edema was calculated. The anti-inflammatory efficacy of the tested compounds was assessed by comparing the change in paw weight in the treated animals with that in control animals (treated with DMSO only) and expressed as a percent inhibition of the edema (percent protection against inflammation), calculated according to the following equation: % Inhibition of edema=(1-Wt/Wc)×100 where Wt is the mean increase in paw weight in rats treated with the test compounds and Wc is the mean increase in paw weight in the control group. The anti-inflammatory activity of the test compounds relative to that of indomethacin was also determined (Table 2).
In the anti-inflammatory study, data obtained were expressed as the mean ± standard error (SEM). Statistical significance was determined by comparing the values of the test compounds and the standard with those obtained from the control group of animals using One-way ANOVA with Dunnett’s post-test using the GraphPad Prism version 3.00 for Windows (GraphPad Software, San Diego California USA, www.graphpad.com). The difference in results was considered significant if P < 0.001.

For the molecule `Cc1nc2c(cnn2-c2ccccc2)c(=O)n1N=c1scc(-c2ccc(Cl)cc2)n1-c1ccc(Cl)cc1` [Compound 11f, 5-{[3,4-Bis(4-chlorophenyl)-1,3-thiazol-2(3H)-ylidene]amino}-6-methyl-1-phenyl-1,5-dihydro-4H-pyrazolo[3,4-d]pyrimidin-4-one], the melting point was in the range of 272 to 275 °C. In the series on gastric mucosa of rats, the “% ulceration in the population of test animals” value (shortened to “% ulceration in the population”) is 40–60%, the “Average No. of ulcer” value came out at 1.6, the “% Incidence/10” value turned out to be 4 and the “% Ulcerogenicity relative to indomethacin” value came to 41.13%. In the series with gastric mucosa of rats, the Average severity is 1.5 and the Ulcer index is recorded as 7.10. Moreover, in series [1], the inhibition in vivo at 10 mg/kg stood at 65%, the change in vivo at 10 mg/kg turned out to be 9.29 ± 0.961%, the “Mean increase in edema weight ± SEM” value came to 0.55 ± 0.043 and the “% Activity relative to indomethacine” value was found to be 95.33%.
In turn, `Cc1nc2c(cnn2-c2ccccc2)c(=O)n1N=c1scc(-c2ccc(Br)cc2)n1-c1ccccc1` [Compound 11b, 5-{[4-(4-Bromophenyl)-3-phenyl-1,3-thiazol-2(3H)-ylidene]amino}-6-methyl-1-phenyl-1,5-dihydro-4H-pyrazolo[3,4-d]pyrimidin-4-one] came in with a melting point of 248 to 252 °C. In the series on gastric mucosa of rats, the “% ulceration in the population” value is reported as 80%, the “Average No. of ulcer” value was determined as 1.2, the “% Incidence/10” value was determined as 8 and the Average severity amounted to 1.33. In addition, in the series with gastric mucosa of rats, the Ulcer index was 10.53. In series [1], the inhibition in vivo at 10 mg/kg was found to be 57.3%, the change in vivo at 10 mg/kg stood at 8.42 ± 0.482%, the “Mean increase in edema weight ± SEM” value came to 0.67 ± 0.049 and the “% Activity relative to indomethacine” value came to 84.11%.
In the case of `Cc1nc2c(cnn2-c2ccccc2)c(=O)n1N=C1SCC(=O)N1c1ccc(Cl)cc1` [Compound 10b, 5-{[3-(4-Chlorophenyl)-4-oxo-1,3-thiazolidin-2-ylidene]amino}-6-methyl-1-phenyl-1,5-dihydro-4H-pyrazolo[3,4-d]pyrimidin-4-one], the melting point is 264 to 267 °C. Also, in the series on gastric mucosa of rats, the “% ulceration in the population” value is listed as 40–60%, the “Average No. of ulcer” value turned out to be 0.8, the “% Incidence/10” value was 6 and the “% Ulcerogenicity relative to indomethacin” value is listed as 46.63%. Moreover, in the series on gastric mucosa of rats, the Average severity came out at 1.25 and the Ulcer index is 8.05. Further, in series [1], the inhibition in vivo at 10 mg/kg is 58.6%, the change in vivo at 10 mg/kg is 8.31 ± 0.43%, the “Mean increase in edema weight ± SEM” value was 0.65 ± 0.022 and the “% Activity relative to indomethacine” value is 85.99%.
Molecule `Cc1nc2c(cnn2-c2ccccc2)c(=O)n1NC(=S)Nc1ccccc1` [Compound 9a, 1-(6-Methyl-4-oxo-1-phenyl-1,4-dihydro-5H-pyrazolo[3,4-d]pyrimidin-5-yl)-3-phenylthiourea] displayed a melting point of 145 to 150 °C. Further, in series [1], the inhibition in vivo at 10 mg/kg was 42.7%, the change in vivo at 10 mg/kg was determined as 12.7 ± 0.748%, the “Mean increase in edema weight ± SEM” value is 0.90 ± 0.058 and the “% Activity relative to indomethacine” value came to 62.63%.
For `CCOC(=O)c1cc2nc3c(cnn3-c3ccccc3)c(=O)n2[nH]c1=O` [Compound 15, Ethyl 4,7-dioxo-1-phenyl-1,4,6,7-tetrahydropyrazolo[3′,4′:4,5]pyrimido[1,2-b]-pyridazine-8-carboxylate], in that order: 172 to 173 °C, 41.4%, 16.4 ± 1.02%, 0.92 ± 0.060 and 60.75%.
In turn, `Cc1nc2c(cnn2-c2ccccc2)c(=O)n1N=Cc1ccccc1` [Compound 7a, 5-(Benzylideneamino)-6-methyl-1-phenyl-1,5-dihydro-4H-pyrazolo[3,4-d]pyrimidin-4-one] gave a melting point of 184 to 186 °C. In series [1], the inhibition in vivo at 10 mg/kg is 34.4%, the change in vivo at 10 mg/kg came out at 15.3 ± 0.515%, the “Mean increase in edema weight ± SEM” value is reported as 1.03 ± 0.033 and the “% Activity relative to indomethacine” value is reported as 50.46%.
For `Cc1nc2c(cnn2-c2ccccc2)c(=O)n1NC(=S)Nc1ccc(Cl)cc1` [Compound 9b, 1-(4-Chlorophenyl)-3-(6-methyl-4-oxo-1-phenyl-1,4-dihydro-5H-pyrazolo[3,4-d]pyrimidin-5-yl)thiourea], in that order: 157 to 160 °C, 47.8%, 15.7 ± 1.03%, 0.82 ± 0.048 and 70.10%.
Take `CCOC(=O)c1cc2nc3c(cnn3-c3ccccc3)c(=O)n2nc1N` [Compound 14, Ethyl 7-amino-4-oxo-1-phenyl-1,4-dihydropyrazolo[3′,4′:4,5]pyrimido[1,2-b]-pyridazine-8-carboxylate]: the melting point was in the range of 155 to 156 °C. In addition, in series [1], the inhibition in vivo at 10 mg/kg came out at 44.6%, the change in vivo at 10 mg/kg stood at 11.1 ± 1.14%, the “Mean increase in edema weight ± SEM” value came out at 0.87 ± 0.076 and the “% Activity relative to indomethacine” value was found to be 65.43%.
`Nn1c(C=O)nc2c(cnn2-c2ccccc2)c1=O` [Compound 13, 5-Amino-4-oxo-1-phenyl-4,5-dihydro-1H-pyrazolo[3,4-d]pyrimidine-6-carbaldehyde] returned a melting point of 145 to 146 °C. Moreover, in series [1], the inhibition in vivo at 10 mg/kg was found to be 39.5%, the change in vivo at 10 mg/kg was 15.1 ± 1.07%, the “Mean increase in edema weight ± SEM” value stood at 0.95 ± 0.043 and the “% Activity relative to indomethacine” value is recorded as 57.95%.
On the same counts, the results for `Cc1nc2c(cnn2-c2ccccc2)c(=O)n1N=Cc1ccc(Cl)cc1` [Compound 7b, 5-[(4-Chlorobenzylidene)amino]-6-methyl-1-phenyl-1,5-dihydro-4H-pyrazolo[3,4-d]-pyrimidin-4-one] are 195 to 196 °C, 36.3%, 15.2 ± 1.4%, 1.00 ± 0.063 and 53.28%.
As to `Cc1nc2c(cnn2-c2ccccc2)c(=O)n1N1C(=O)CC(=O)N(c2ccc(Cl)cc2)C1=S` [Compound 12b, 1-(4-Chlorophenyl)-3-(6-methyl-4-oxo-1-phenyl-1,4-dihydro-5H-pyrazolo[3,4-d]pyrimidin-5-yl)-2-thioxodihydropyrimidine-4,6(1H,5H)-dione], the melting point lay in the range of 198 to 201 °C. Besides, in series [1], the inhibition in vivo at 10 mg/kg turned out to be 45.9%, the change in vivo at 10 mg/kg stood at 19.3 ± 0.905%, the “Mean increase in edema weight ± SEM” value was 0.85 ± 0.043 and the “% Activity relative to indomethacine” value is 67.29%.

For the origin of these results see PMC3700072, “Synthesis, Anti-Inflammatory, and Ulcerogenicity Studies of Novel Substituted and Fused Pyrazolo[3,4-d]pyrimidin-4-ones” (Scientia Pharmaceutica, 2013).
